Assay results as given in ChEMBL document CHEMBL1201862, “PubChem BioAssay data set” (2004).
Calls of active or inactive are those of the source.

What was measured:
Type in all cases: functional
[1] = molecular target: T1, Sentrin-specific protease 7 (Homo sapiens, UniProt Q9BQF6);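 also: Luminescence-based dose-response confirmation of ultra-high-throughput screening hits, measuring inhibition of SENP7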
T1 sequence (Q9BQF6 whole entry): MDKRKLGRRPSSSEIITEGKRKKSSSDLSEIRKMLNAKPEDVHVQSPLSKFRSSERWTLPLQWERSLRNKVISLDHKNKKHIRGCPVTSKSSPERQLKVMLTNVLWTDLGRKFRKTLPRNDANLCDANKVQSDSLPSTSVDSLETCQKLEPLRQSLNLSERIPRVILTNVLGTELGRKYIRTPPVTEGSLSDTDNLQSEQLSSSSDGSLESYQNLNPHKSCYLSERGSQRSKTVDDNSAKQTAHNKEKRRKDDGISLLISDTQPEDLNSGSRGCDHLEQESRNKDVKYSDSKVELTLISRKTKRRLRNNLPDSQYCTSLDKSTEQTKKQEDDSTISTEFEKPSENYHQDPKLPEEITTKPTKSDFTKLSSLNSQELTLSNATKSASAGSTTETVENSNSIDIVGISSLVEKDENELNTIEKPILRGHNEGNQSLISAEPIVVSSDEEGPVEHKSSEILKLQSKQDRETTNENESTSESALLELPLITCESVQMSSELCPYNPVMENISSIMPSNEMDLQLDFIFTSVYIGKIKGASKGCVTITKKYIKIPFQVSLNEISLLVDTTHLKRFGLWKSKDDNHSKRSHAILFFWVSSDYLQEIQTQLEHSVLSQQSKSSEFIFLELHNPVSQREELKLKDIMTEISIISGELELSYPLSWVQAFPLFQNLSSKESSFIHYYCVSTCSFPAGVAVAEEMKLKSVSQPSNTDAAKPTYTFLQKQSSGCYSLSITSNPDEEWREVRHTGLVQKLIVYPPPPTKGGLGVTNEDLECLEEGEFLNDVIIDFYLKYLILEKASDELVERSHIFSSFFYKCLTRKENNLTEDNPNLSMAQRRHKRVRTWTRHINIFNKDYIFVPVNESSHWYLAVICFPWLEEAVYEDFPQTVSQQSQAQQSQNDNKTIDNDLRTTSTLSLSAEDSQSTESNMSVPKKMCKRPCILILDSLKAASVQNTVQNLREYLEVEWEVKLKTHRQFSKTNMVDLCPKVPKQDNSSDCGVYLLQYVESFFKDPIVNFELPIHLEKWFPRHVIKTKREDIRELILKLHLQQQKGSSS

[2] = molecular target: T2, Replicative DNA helicase DnaB (Mycobacterium tuberculosis, UniProt P9WMR3); test: DnaB intein splicing inhibitors, dose response, biochemical, cell-free fluorescence (AID 449749)
T2 sequence (P9WMR3 whole entry): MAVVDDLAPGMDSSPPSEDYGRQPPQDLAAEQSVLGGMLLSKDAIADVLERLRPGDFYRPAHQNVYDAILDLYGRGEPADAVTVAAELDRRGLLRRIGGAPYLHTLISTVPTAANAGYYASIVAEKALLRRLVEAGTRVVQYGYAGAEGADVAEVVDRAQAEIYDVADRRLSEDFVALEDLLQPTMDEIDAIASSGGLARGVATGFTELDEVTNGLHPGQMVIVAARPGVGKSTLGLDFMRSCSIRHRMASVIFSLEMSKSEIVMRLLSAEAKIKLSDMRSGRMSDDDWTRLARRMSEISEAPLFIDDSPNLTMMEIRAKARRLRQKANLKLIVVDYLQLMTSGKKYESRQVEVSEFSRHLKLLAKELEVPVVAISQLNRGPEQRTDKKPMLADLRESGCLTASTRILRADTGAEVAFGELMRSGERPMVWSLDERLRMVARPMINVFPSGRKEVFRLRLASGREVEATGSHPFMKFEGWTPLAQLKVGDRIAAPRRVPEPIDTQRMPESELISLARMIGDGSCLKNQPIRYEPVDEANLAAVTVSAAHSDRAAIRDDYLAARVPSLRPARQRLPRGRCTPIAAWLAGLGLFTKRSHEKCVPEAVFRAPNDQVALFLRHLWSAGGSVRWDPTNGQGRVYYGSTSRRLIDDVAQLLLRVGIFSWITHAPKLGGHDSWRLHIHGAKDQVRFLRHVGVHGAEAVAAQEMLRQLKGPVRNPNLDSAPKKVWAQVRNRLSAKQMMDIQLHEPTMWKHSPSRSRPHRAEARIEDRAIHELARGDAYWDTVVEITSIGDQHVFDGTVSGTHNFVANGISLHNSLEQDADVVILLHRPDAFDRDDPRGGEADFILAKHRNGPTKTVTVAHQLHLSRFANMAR

Protein RecA = molecular target: T3, Protein RecA (Mycobacterium tuberculosis, UniProt P9WHJ3); test: Fluorescence Cell-Free Homogeneous Dose Retest to Identify Inhibitors of RecA-Intein Splicing Activity. [Related pubchem assays (depositor defined):AID2097, AID2223, AID489010, AID492950]
T3 sequence (P9WHJ3 whole entry): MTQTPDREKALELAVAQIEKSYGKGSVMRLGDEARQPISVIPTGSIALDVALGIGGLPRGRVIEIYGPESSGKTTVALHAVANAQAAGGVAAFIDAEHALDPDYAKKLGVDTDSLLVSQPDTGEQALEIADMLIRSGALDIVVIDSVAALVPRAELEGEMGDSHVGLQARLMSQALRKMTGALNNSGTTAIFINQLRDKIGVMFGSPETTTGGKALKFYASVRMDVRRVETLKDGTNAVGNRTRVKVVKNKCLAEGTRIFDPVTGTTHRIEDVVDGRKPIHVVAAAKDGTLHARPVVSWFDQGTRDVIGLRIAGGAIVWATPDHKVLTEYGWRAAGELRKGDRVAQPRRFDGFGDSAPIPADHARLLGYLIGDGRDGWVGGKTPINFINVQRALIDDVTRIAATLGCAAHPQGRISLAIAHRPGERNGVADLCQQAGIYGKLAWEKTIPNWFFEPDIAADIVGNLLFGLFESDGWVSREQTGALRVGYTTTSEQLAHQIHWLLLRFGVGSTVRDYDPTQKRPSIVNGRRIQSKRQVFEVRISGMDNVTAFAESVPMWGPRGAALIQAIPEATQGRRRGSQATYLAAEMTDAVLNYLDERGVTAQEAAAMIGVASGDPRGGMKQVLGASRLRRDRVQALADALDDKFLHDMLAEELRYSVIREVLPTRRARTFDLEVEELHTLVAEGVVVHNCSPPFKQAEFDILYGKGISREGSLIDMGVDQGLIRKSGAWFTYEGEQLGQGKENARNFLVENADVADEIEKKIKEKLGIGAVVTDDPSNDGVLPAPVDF

Row | Compound | IC50 [1] | AC50 [2] | EC50 (Protein RecA)
1 | CCC(=O)N(C1=C(NC)C(=O)c2ccccc2C1=O)C(C)C | 33.2 µM (active) | 24.5 µM (active) | 9.21 µM (active)
2 | CC1CC(C)CN(C(=O)c2ccc3c(c2NCCO)C(=O)c2ccccc2C3=O)C1 (stereo not given) |  | 14.5 µM (active) | 20 µM (active)
